Results on 3 compounds are retold here after ChEMBL document CHEMBL3425418 (Bioorg Med Chem Lett, 2015).

Usually Cmax stands for the maximum level reached in the sampled fluid or tissue. Broadly, the AUC(0-inf) is the area under the concentration-time curve extrapolated to infinity. A high value points to high exposure. The Tmax is the time from dosing to the highest level. One may read the MRT as the average time that molecules of a dose stay in the body. The IC50 is the concentration that gives 50% inhibition. Broadly, the AUC is concentration integrated over time. Low values mean low exposure, high ones high exposure. As a reminder, the half-life is the time needed for the level to fall by half in the phase considered. Higher therefore signals slow decline.

A short description of series [1]: Cmax in Sprague-Dawley rat at 2.5 mg/kg, po. As to conditions: in vivo. Format: ADME, organism-based. On the set-up: dose 2.5 mg/kg, route oral.
A short description of series [2]: AUC (0 to infinity) in Sprague-Dawley rat at 2.5 mg/kg, po. The series is classed as ADME, organism-based. The following applies: plasma. Also noted: time infinity, dose 2.5 mg/kg, route oral.
Series [3] is described as follows: Tmax in Sprague-Dawley rat at 2.5 mg/kg, po. On the set-up: dose 2.5 mg/kg, route oral. As to conditions: in vivo. The series is classed as ADME, organism-based.
Series [4] can be described thus: Mean residence time in Sprague-Dawley rat at 2.5 mg/kg, po. The series is classed as ADME, organism-based. On the set-up: dose 2.5 mg/kg, route oral. The following applies: in vivo.
A further series has as its target T1, Ephrin type-B receptor 2 (Homo sapiens, UniProt P29323).
T1 sequence (P29323 whole entry): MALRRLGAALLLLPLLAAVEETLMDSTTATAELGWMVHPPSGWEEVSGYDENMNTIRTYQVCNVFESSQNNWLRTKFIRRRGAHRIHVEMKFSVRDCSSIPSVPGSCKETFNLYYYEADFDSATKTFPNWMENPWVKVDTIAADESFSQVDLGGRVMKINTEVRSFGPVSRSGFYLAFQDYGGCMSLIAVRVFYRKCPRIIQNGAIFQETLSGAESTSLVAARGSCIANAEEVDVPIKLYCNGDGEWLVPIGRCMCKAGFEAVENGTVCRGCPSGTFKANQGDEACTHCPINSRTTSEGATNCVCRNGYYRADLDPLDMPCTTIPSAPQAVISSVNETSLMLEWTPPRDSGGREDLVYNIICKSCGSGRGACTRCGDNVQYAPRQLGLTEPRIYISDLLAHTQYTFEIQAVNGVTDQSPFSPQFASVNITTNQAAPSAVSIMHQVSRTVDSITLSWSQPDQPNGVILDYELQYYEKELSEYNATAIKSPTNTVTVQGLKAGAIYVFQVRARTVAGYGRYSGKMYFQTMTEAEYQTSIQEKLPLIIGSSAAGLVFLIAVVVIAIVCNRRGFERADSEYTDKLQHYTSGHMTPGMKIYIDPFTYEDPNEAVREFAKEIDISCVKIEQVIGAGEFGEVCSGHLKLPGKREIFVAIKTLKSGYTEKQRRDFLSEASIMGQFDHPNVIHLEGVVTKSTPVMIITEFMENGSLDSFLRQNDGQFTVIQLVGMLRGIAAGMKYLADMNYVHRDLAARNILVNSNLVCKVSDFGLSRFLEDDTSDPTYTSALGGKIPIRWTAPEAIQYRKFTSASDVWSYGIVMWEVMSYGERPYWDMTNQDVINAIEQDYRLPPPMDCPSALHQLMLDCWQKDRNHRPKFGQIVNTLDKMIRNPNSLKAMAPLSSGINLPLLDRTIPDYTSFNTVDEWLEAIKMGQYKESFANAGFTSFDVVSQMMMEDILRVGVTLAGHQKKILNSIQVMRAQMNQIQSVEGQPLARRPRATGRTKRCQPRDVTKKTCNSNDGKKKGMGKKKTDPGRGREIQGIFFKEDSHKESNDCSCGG
Kind of series: Inhibition of recombinant EphB2 (unknown origin) by cell-free assay.

Series [5] can be described thus: AUC (0 to time) in Sprague-Dawley rat at 2.5 mg/kg, po. Format: ADME, organism-based. On the set-up: dose 2.5 mg/kg, route oral. As to conditions: plasma.
A short description of series [6]: Half life in Sprague-Dawley rat at 2.5 mg/kg, po. The series is classed as ADME, organism-based. Also noted: dose 2.5 mg/kg, route oral. As to conditions: in vivo.
For series [7], the species on record is Homo sapiens. Description: Toxicity in metastatic renal cell carcinoma patient assessed as dysphonia. The series is classed as organism-based.
For series [8], the species on record is Homo sapiens. Description: Toxicity in metastatic renal cell carcinoma patient assessed as hypertension. The series is classed as organism-based.

On to `[2H]C([2H])([2H])Oc1cc2nccc(Oc3ccc(NC(=O)Nc4cc(C)on4)c(Cl)c3)c2cc1OC([2H])([2H])[2H]`, for which the highest level in series [1] (Cmax) was 3980 ng/mL. For the same compound, in series [2], the AUC(0-inf) was 73900 ng·h/mL. Besides, in series [3], the Tmax amounted to 5 h. Also, the MRT in [4] is 15.8 h. Further, the IC50 on Ephrin type-B receptor 2 was 26.8 nM. In [5], this compound displayed an AUC of 69700 ng·h/mL. Further, the half-life in series [6] is 666 min.
As for `CNC(=O)c1cc(Oc2ccc(NC(=O)Nc3ccc(Cl)c(C(F)(F)F)c3)cc2)ccn1` [SORAFENIB], the values for the Activity in the series listed under Homo sapiens [7] and in the series listed under Homo sapiens [8] were 5% and 34%, respectively.
For `COc1cc2nccc(Oc3ccc(NC(=O)Nc4cc(C)on4)c(Cl)c3)c2cc1OC` [TIVOZANIB], in series [1], the highest level (Cmax) was 3060 ng/mL. In addition, the AUC(0-inf) in [2] worked out at 49100 ng·h/mL. For the same compound, in [3], the Tmax worked out at 4.8 h. The compound also gave an MRT in [4] of 13.4 h. Further, the Activity in the series filed under Homo sapiens [7] turned out to be 21%; in the series filed under Homo sapiens [8], 44%. Besides, on Ephrin type-B receptor 2, the IC50 was 17.5 nM. The AUC in series [5] is 47500 ng·h/mL. In series [6], this compound gave a half-life of 561 min.
